Measurements from patent publication US9011880B2, “Compounds and methods for treating cancer” (IGF Oncology, LLC, priority 2003, dated 2015).
Where two headings read alike, the source gives them in different places.

Assays:
[1] = test system: MDA-MB-231 breast cancer cells; conditions: cells incubated with insulin; cited from earlier work
breast cancer cells [2] = conditions: cells incubated with insulin; cited from earlier work
breast cancer cells [3] = conditions: administered with insulin; cited from earlier work
MCF7 tumors = test: MCF7 xenograft tumor growth in nu/nu mice; assay type: in vivo, mouse; conditions: 40 nmol/g intravenous, days 0, 4 and 8; 12 days of observation
Method: (§1) MCF7 cells (human breast adenocarcinoma cell line) were grown in Eagle's minimal essential medium supplemented with 0.1 mg/ml insulin and 10% FCS. The estrogen-dependent MCF7-L cell line was a gift from Deepali Sachdev of the University of Minnesota. MCF7-L cells were grown in modified IMEM medium (Invitrogen, Carlsbad, Calif., USA) supplemented with 0.1 mg/ml insulin. LNCaP cells (metastatic human prostatic adenocarcinoma) were grown in RPMI supplemented with glutamine and 10% FCS (Invitrogen, Carlsbad, Calif., USA). Cells were grown at 37° C. in a 5% CO2 humidified atmosphere. In each case, cells were grown to approximately two-thirds confluence, harvested by trypsinization, washed with rich medium and then washed twice with PBS and resuspended in phosphate buffered saline in BD matrigel matrix (Becton Dickinson, Franklin Lakes, N.J., USA). Cells were injected intradermally in mice on the back. An estrogen pellet (0.5 mg estradiol, 60-day release, Innovative Research of America, Sarasota, Fla., USA) was implanted subcutaneously between the shoulder blades two days before implanting MCF7 and MCF7-L cells. MCF7 and MCF7-L cells were implanted in 8-week-old female nu/nu mice. LNCaP cells were implanted in 8-week-old male nu/nu mice. […] MTX was dissolved in PBS. Untreated vehicle controls received 2 mM HCl, 1% glycerol. Drug was administered intravenously by tail-vein injection in a volume of 12.5 μl per gram mouse weight. All studies were approved by the University of Minnesota Animal Care and Use Committee and conformed to relevant ethical guidelines.
Three in vivo studies were performed to assess the targeting of MTX with long-R3-IGF-1. In the initial preliminary study, breast cancer MCF7 cells were implanted intradermally in the backs of nude mice.

FSAII tumors = test: FSAII tumor growth in vivo in mice; set-up: species or system mouse; conditions: intraperitoneally, days 0, 2 and 5
Method: FSAII testing. Six-week old female mice were injected subcutaneously in the thigh with 200,000 FSAII cells each in serum-free medium. Tumors were allowed to grow until they reached an average volume of 100 mm^3 (calculated as length×breadth^2). At that time, treatment was initiated. […] A fifth group of mice was untreated controls. Each group contained five mice. Mice were treated on days 0, 2, and 5. Tumor growth was measured every second day.

LNCAP cells [4] = test: LNCAP proliferation in vitro (Example 5, cell counting kit-8)
Method: LNCAP cells were plated in a 96-well plate at 3,000 cells per well in RPMI medium supplemented with 10% fetal bovine serum (FBS). After incubation overnight, the medium in the wells was replaced with 100 μl per well of RPMI supplemented with 0.1% FBS. […] After incubation for 4 days, cell proliferation was assayed with the cell counting kit-8 (Dojindo Molecular Technologies, Gaithersburg, Md.).

[5] = test system: mouse fibrosarcoma cell line FSAII; test: In vitro growth inhibition of FSAII cells (cell-counting kit-8); assay type: cell-based; conditions: minimal medium, 2 nM to 2 μM, 72 hours
Method: In vitro growth inhibition. […] The cells were grown in a 5% CO2 atmosphere at 37° C. in 100 cm^2 plastic tissue culture dishes (20 ml medium). Cells were passed every 4-6 days and seeded at 2×10^6 cells per plate. Cells were harvested by washing once in Hank's balanced salt solution, and then digesting with 3 ml of trypsin-EDTA for 3-10 minutes until cells had detached. Trypsinization was stopped by adding rich medium. The harvested cells were washed by centrifugation and resuspended in rich medium, and then plated in a 96-well plate at 12,000 cells per well in rich medium. Plates were incubated in the rich medium 16 hours and then transferred to minimal medium (100 μl/well), which lacked serum and thus lacked insulin and IGF and other growth factors. Minimal medium was RPMI supplemented with 10 μg/ml transferrin (iron-loaded) and 200 μg/ml bovine serum albumin. […] Each condition was tested in triplicate. After 72 hours incubation at 37° C., cell proliferation was assayed by the cell-counting kit-8, based on tetrazolium dye reduction, similar to the MTT assay (Dojindo Molecular Technologies, Gaithersburg, Md.).

LNCAP tumors = assay type: in vivo, mouse; conditions: days 0, 4, 8, 18, 22 and 26
Method: LNCAP testing. Eight-week old athymic male mice (nu/nu) were injected subcutaneously in the thigh with 1 million LNCAP cells in serum-free medium. Tumors were allowed to grow until they reached an average size of 100 mm^3. […] A fifth group of mice was untreated controls.

MCF7-L tumors = test: MCF7-L xenograft tumor growth in nu/nu mice; assay type: in vivo, mouse; conditions: day 22; IGF-MTX 10 nmol of MTX/g or free MTX 40 nmol/g, tail vein, days 0 and 5
Method: as §1, with “Drug was administered intravenously by tail-vein injection in a volume of 12.5 μl per gram mouse weight. All studies were approved by the University of Minnesota Animal Care and Use Committee and conformed to relevant ethical guidelines.” left out

[6] = IGF-MTX- and MTX-related toxicity in mice (ill effects, body weight); conditions: mice implanted with MCF7-L cells, n = 5/group
Method: as §1

[7] = humans, cited from earlier work
LNCAP cells [8] = test: In vitro proliferation assay, LNCaP (Example 8); assay type: cell-based, human
Method: LNCaP, MCF7 and MCF7-L cell lines were plated, respectively, in a 96-well plate at 5,000 cells per well in RPMI+glutamine+10% FCS medium in 100 μl. After 24 hours, 100 μl fresh medium was added containing no drug (control), IGF-MTX or MTX at the indicated concentration.

[9] = low dose 15 μmoles/kg methotrexate

## Cc1c2ccncc2c(C)c2c1[nH]c1ccccc12 [elipticine]
[1]
  stimulation of uptake: 2 fold

## CN(Cc1cnc2nc(N)nc(N)c2n1)c1ccc(C(=O)N[C@@H](CCC(=O)O)C(=O)O)cc1 [methotrexate]
Breast cancer cells [2]
  stimulation of uptake: 50%
Breast cancer cells [3]
  factor of lower methotrexate concentration for the same percent cell killing than methotrexate alone: 10^4
MCF7 tumors
  MCF7 tumor growth: tumors continued to grow
FSAII tumors; high dose 60 μmoles/kg methotrexate
  effect on FSAII tumor growth: Neither the high or low dose of methotrexate had any apparent effect
FSAII tumors; [9]
  effect on FSAII tumor growth: Neither the high or low dose of methotrexate had any apparent effect
LNCAP cells [4]; Minimal med. (0.1% FBS), MTX conc. 2 nM
  Cell number (relative units): .653 ± .046 relative units
LNCAP cells [4]; Minimal med. (0.1% FBS), MTX conc. 8 nM
  Cell number (relative units): .737 ± .043 relative units
LNCAP cells [4]; Minimal med. (0.1% FBS), MTX conc. 32 nM
  Cell number (relative units): .994 ± .226 relative units
LNCAP cells [4]; Minimal med. (0.1% FBS), MTX conc. 125 nM
  Cell number (relative units): .835 ± .048 relative units
LNCAP cells [4]; Minimal med. (0.1% FBS), MTX conc. 500 nM
  Cell number (relative units): .706 ± .051 relative units
LNCAP cells [4]; Minimal med. (0.1% FBS), MTX conc. 2000 nM
  Cell number (relative units): 0.418 ± .026 relative units
LNCAP cells [4]; Rich medium (10% FBS), MTX conc. 2 nM
  Cell number (relative units): 0.724 ± .015 relative units
LNCAP cells [4]; Rich medium (10% FBS), MTX conc. 8 nM
  Cell number (relative units): 0.596 ± .071 relative units
LNCAP cells [4]; Rich medium (10% FBS), MTX conc. 32 nM
  Cell number (relative units): 1.017 ± .033 relative units
LNCAP cells [4]; Rich medium (10% FBS), MTX conc. 125 nM
  Cell number (relative units): 0.223 ± .012 relative units
LNCAP cells [4]; Rich medium (10% FBS), MTX conc. 500 nM
  Cell number (relative units): 0.163 ± .009 relative units
LNCAP cells [4]; minimal medium containing 0.1% serum
  minimal inhibitory concentration: about 2000 nM
LNCAP cells [4]; rich medium containing 10% serum
  minimal inhibitory concentration: about 125 nM
[5]
  inhibition of FSAII proliferation: inhibited FSAII proliferation
LNCAP tumors; high dose 40 μmoles/kg methotrexate
  effect on LNCAP tumor growth: appeared to have no effect
LNCAP tumors; [9]
  effect on LNCAP tumor growth: appeared to have no effect
MCF7-L tumors
  MCF7-L tumor growth inhibition: inhibited about equally
[6]
  Average weight of mice, Day 4: 19.5 g
  Average weight of mice, Day 20: 20.8 g
[6]; measured immediately before treatment
  Average weight of mice, Day 0: 19.2 g
[7]; cumulative per 3 weeks
  maximum safe dosage: about 500 micromoles per meter squared per 3 weeks
[7]; lowest dosage usually used
  minimum effective dosage: about 130 micromoles per meter squared per 3 weeks
LNCAP cells [8]; 2000 nM
  inhibition of proliferation at highest tested concentration: significantly greater inhibition than IGF-MTX
LNCAP cells [8]; LNCaP
  inhibition of proliferation compared to untreated control cells: inhibited proliferation of LNCaP cells
LNCAP cells [8]; free MTX, LNCaP, RPMI + 10% FCS, 48 hours with drug, IGF-MTX as concentration of MTX groups
  IC50: ~400 nM
